Our source for the IC50 values is patent US10913738B2 (BRISTOL-MYERS SQUIBB COMPANY, priority 2017, dated 2021).

Read-outs that look alike come from different tables or passages of the source.

In test [1] the target is T1, His-GST-TVMV-hRIPK1(1-324) (Homo sapiens, UniProt Q13546).
T1 construct: The coding region of human RIPK1(1-324) flanked by NdeI site at 5′ end; made in house; host or cells: Spodoptera frugiperda (Sf9) insect cells, baculovirus
T1 sequence (Q13546 1-324): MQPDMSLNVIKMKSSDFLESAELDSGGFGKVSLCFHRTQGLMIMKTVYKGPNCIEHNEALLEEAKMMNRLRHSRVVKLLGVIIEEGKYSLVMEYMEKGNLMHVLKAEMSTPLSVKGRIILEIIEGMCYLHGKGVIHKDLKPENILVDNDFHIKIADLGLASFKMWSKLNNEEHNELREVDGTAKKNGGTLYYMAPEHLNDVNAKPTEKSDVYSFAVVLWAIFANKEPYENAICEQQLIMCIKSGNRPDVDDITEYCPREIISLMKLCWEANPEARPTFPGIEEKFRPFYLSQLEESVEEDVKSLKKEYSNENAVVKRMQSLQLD
Kind of test: RIPK1 HTRF Binding Assay. (Time-resolved FRET reads energy transfer from a long-lived donor to a nearby acceptor.)

Test [2] concerns MLKL phosphorylation in HT29-L23 human colorectal adenocarcinoma cells. Kind of test: MLKL Phosphorylation High-Content Assay. It counts as cell-based. As to conditions: Homo sapiens. A digest of the protocol:
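Cells incubated six hours at 37° C., then phospho-MLKL (S358) immunostained overnight at 4° C. and imaged by high-content microscopy. Phosphorylation quantified as mean circ-ring average intensity ratio; IC50 and Ymax from 4-parameter logistic fits.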

The mark [3] stands for this setting: x marks IC50 class 20-200 nM, read-out: RIPK1 HTRF binding 20-200 nM.
Where [4] appears, read: x marks IC50 class 20-200 nM, read-out: pMLKL cell activity 20-200 nM.
Where [5] appears, read: x marks IC50 class >200 nM, read-out: pMLKL cell activity >200 nM.
The mark [6] stands for this setting: x marks IC50 class <20 nM, read-out: RIPK1 HTRF binding <20 nM.
Where [7] appears, read: x marks IC50 class <20 nM, read-out: pMLKL cell activity <20 nM.

`Cc1ncc(-c2ccn3nc(N)nc3c2)cc1C(=O)NCc1cc(F)cc(F)c1OC1CC1` [Example 308, 5-(2-amino-[1,2,4]triazolo[1,5-a]pyridin-7-yl)-N-(2-cyclopropoxy-3,5-difluorobenzyl)-2-methylnicotinamide]: the IC50 in test [1] (setting [3]) and in test [2] (setting [4]) was 20 to 200 nM each time.

Consider `Nc1nc2cc(-c3cc(C(=O)NCc4ccccc4Sc4ccccc4CO)c4cc(F)ccc4n3)ccn2n1` [Example 60, 2-{2-Amino-[1,2,4]triazolo[1,5-a]pyridin-7-yl}-6-fluoro-N-[(2-{[2-(hydroxymethyl)phenyl]sulfanyl}phenyl)methyl]quinoline-4-carboxamide], for which the IC50 in test [1] (setting [3]) was 20 to 200 nM; in test [2] (setting [5]), greater than 200 nM.

As for `COc1nc(C)c(-c2ccn3nc(N)nc3c2)cc1C(=O)NCc1cccc(F)c1OC1C[C@@H](C)O[C@@H](C)C1` (stereo partly drawn) [Example 356, 5-(2-amino-[1,2,4]triazolo[1,5-a]pyridin-7-yl)-N-(2-(((2R,6S)-2,6-dimethyltetrahydro-2H-pyran-4-yl)oxy)-3-fluorobenzyl)-2-methoxy-6-methylnicotinamide], the IC50 is 20 to 200 nM in test [1] (setting [3]), less than 20 nM in test [1] (setting [6]) and greater than 200 nM in test [2] (setting [5]).

In the case of `Cc1cnc(-c2ccn3nc(N)nc3c2)cc1C(=O)NCCC(C)c1ccccc1` (stereo not drawn) [Example 393, 2-(2-amino-[1,2,4]triazolo[1,5-a]pyridin-7-yl)-5-methyl-N-(3-phenylbutyl)isonicotinamide], the values for the IC50 in test [1] (setting [6]) and in test [2] (setting [4]) were less than 20 nM and 20 to 200 nM, respectively.

As to `Cc1ccc(-c2ccn3nc(N)nc3c2)nc1C(=O)NCC[C@H](O)c1ccc(Cl)cc1` [Example 401, (S)-6-(2-amino-[1,2,4]triazolo[1,5-a]pyridin-7-yl)-N-(3-(4-chlorophenyl)-3-hydroxypropyl)-3-methylpicolinamide], the figures for the IC50 in test [1] (setting [6]) and in test [2] (setting [4]) were less than 20 nM and 20 to 200 nM, respectively.

Consider `Cc1ncc(-c2ccn3nc(N)nc3c2)cc1C(=O)NCc1ccccc1OCC1CC1` [Example 250, 5-{2-amino-[1,2,4]triazolo[1,5-a]pyridin-7-yl}-N-{[2-(cyclopropylmethoxy)phenyl]methyl}-2-methylpyridine-3-carboxamide], for which the figures for the IC50 in test [1] (setting [6]) and in test [2] (setting [4]) were less than 20 nM and 20 to 200 nM, respectively.

Turning to `COc1ncc(-c2ccn3nc(N)nc3c2)cc1C(=O)NCCC(O)c1ccc(F)cc1` (stereo not drawn) [Example 78, 5-{2-Amino-[1,2,4]triazolo[1,5-a]pyridin-7-yl}-N-[3-(4-fluorophenyl)-3-hydroxypropyl]-2-methoxypyridine-3-carboxamide], the IC50 in test [1] (setting [3]) and in test [2] (setting [4]) was 20 to 200 nM in each case.

For the molecule `COc1ccc(F)c(CNC(=O)c2cc(-c3ccn4nc(N)nc4c3)c(C)nc2OC)c1` [Example 337, 5-(2-amino-[1,2,4]triazolo[1,5-a]pyridin-7-yl)-N-(2-fluoro-5-methoxybenzyl)-2-methoxy-6-methylnicotinamide], the IC50 in test [1] (setting [3]) is 20 to 200 nM; in test [2] (setting [5]) it was greater than 200 nM.

In the case of `Nc1nc2cc(-c3cnc(N)c(C(=O)NCc4c(F)cccc4OC4CCCC4)c3)ccn2n1` [Example 48, 2-Amino-5-{2-amino-[1,2,4]triazolo[1,5-a]pyridin-7-yl}-N-{[2-(cyclopentyloxy)-6-fluorophenyl]methyl}pyridine-3-carboxamide], the IC50 in test [1] (setting [6]) and in test [2] (setting [7]) was less than 20 nM throughout.

Consider `CCOc1ccccc1CNC(=O)c1cc(-c2ccn3nc(N)nc3c2)cnc1OC` [Example 153, 5-{2-amino-[1,2,4]triazolo[1,5-a]pyridin-7-yl}-N-[(2-ethoxyphenyl)methyl]-2-methoxypyridine-3-carboxamide], for which the IC50 is less than 20 nM in test [1] (setting [6]) and 20 to 200 nM in test [2] (setting [4]).

Turning to `Cc1ncc(-c2ccn3nc(N)nc3c2)cc1C(=O)NC(C)c1cccc(OC(F)(F)F)c1` (stereo not drawn) [Example 234, 5-{2-amino-[1,2,4]triazolo[1,5-a]pyridin-7-yl}-2-methyl-N-{1-[3-(trifluoromethoxy)phenyl]ethyl}pyridine-3-carboxamide], the IC50 is 20 to 200 nM in test [1] (setting [3]) and greater than 200 nM in test [2] (setting [5]).

Regarding `Cc1nc(C)c(-c2ccn3nc(N)nc3c2)cc1C(=O)NCc1cccnc1OCC1CCC1` [Example 187, 5-{2-amino-[1,2,4]triazolo[1,5-a]pyridin-7-yl}-N-{[2-(cyclobutylmethoxy)pyridin-3-yl]methyl}-2,6-dimethylpyridine-3-carboxamide], the IC50 in test [1] (setting [3]) and in test [2] (setting [4]) was 20 to 200 nM in each case.

On to `CCCOc1ncc(-c2ccn3nc(N)nc3c2)cc1C(=O)NCc1ccccc1Sc1ccccc1CO` [Example 63], for which the IC50 in test [1] (setting [6]) is less than 20 nM; in test [2] (setting [4]) it was 20 to 200 nM.

`[2H]C([2H])(NC(=O)c1cc(-c2ccn3nc(N)nc3c2)c(C)nc1OC)c1cc(OC(F)(F)F)ccc1F` [Example 222, 5-{2-amino-[1,2,4]triazolo[1,5-a]pyridin-7-yl}-N-{[2-fluoro-5-(trifluoromethoxy)phenyl](deutero)methyl}-2-methoxy-6-methylpyridine-3-carboxamide]: the IC50 in test [1] (setting [6]) and in test [2] (setting [7]) was less than 20 nM each time.

Turning to `COc1ncc(-c2ccn3nc(N)nc3c2)cc1C(=O)NCc1c(F)cccc1OC1CCC(C)C1` (stereo not drawn) [Example 23, 5-{2-Amino-[1,2,4]triazolo[1,5-a]pyridin-7-yl}-N-({2-fluoro-6-[(3-methylcyclopentyl)oxy]phenyl}methyl)-2-methoxypyridine-3-carboxamide], the IC50 in test [1] (setting [6]) and in test [2] (setting [7]) was less than 20 nM in each case.

`COc1cnc(-c2ccn3nc(N)nc3c2)cc1C(=O)N[C@H](C)c1cc(OC(F)(F)F)ccc1F` [Example 389, (R)-2-(2-amino-[1,2,4]triazolo[1,5-a]pyridin-7-yl)-N-(1-(2-fluoro-5-(trifluoromethoxy)phenyl)ethyl)-5-methoxyisonicotinamide]: the IC50 in test [1] (setting [3]) was 20 to 200 nM; in test [2] (setting [5]) it was greater than 200 nM.

On to `CC(C)Oc1c(F)cc(F)cc1CNC(=O)c1cc(-c2ccn3nc(N)nc3c2)cnc1Cl` [Example 163, 5-{2-amino-[1,2,4]triazolo[1,5-a]pyridin-7-yl}-2-chloro-N-{[3,5-difluoro-2-(propan-2-yloxy)phenyl]methyl}pyridine-3-carboxamide], for which the figures for the IC50 in test [1] (setting [6]) and in test [2] (setting [4]) were less than 20 nM and 20 to 200 nM, respectively.

Turning to `COc1ncc(-c2ccn3nc(N)nc3c2)cc1C(=O)NCc1ccccc1Oc1ccccc1` [Example 158, 5-{2-amino-[1,2,4]triazolo[1,5-a]pyridin-7-yl}-2-methoxy-N-[(2-phenoxyphenyl)methyl]pyridine-3-carboxamide], the IC50 in test [1] (setting [6]) and in test [2] (setting [7]) was less than 20 nM in each case.

Regarding `COc1ncc(-c2ccn3nc(N)nc3c2)cc1C(=O)NCc1cc(F)cc(F)c1OC1COC1` [Example 364, 5-(2-amino-[1,2,4]triazolo[1,5-a]pyridin-7-yl)-N-(3,5-difluoro-2-(oxetan-3-yloxy)benzyl)-2-methoxynicotinamide], the IC50 in test [1] (setting [6]) is less than 20 nM; in test [2] (setting [4]) it was 20 to 200 nM.

In the case of `CCOc1ncc(-c2ccn3nc(N)nc3c2)cc1C(=O)NCC[C@H](O)c1ccc(Cl)cc1` [Example 278, 5-{2-amino-[1,2,4]triazolo[1,5-a]pyridin-7-yl}-N-[(3S)-3-(4-chlorophenyl)-3-hydroxypropyl]-2-ethoxypyridine-3-carboxamide], the IC50 in test [1] (setting [3]) was 20 to 200 nM; in test [2] (setting [5]), greater than 200 nM.

On to `Cc1ncc(C(=O)NCc2ncccc2OC2CCCC2)cc1-c1ccn2nc(N)nc2c1` [Example 17, 5-{2-Amino-[1,2,4]triazolo[1,5-a]pyridin-7-yl}-N-{[3-(cyclopentyloxy)pyridin-2-yl]methyl}-6-methylpyridine-3-carboxamide], for which the results for the IC50 in test [1] (setting [6]) and in test [2] (setting [4]) were less than 20 nM and 20 to 200 nM, respectively.

In the case of `COc1ncc(-c2ccn3nc(N)nc3c2)cc1C(=O)N1CCCC(Cc2cccc(F)c2)C1` (stereo not drawn) [Example 118, 7-(5-{3-[(3-fluorophenyl)methyl]piperidine-1-carbonyl}-6-methoxypyridin-3-yl)-[1,2,4]triazolo[1,5-a]pyridin-2-amine], the IC50 in test [1] (setting [3]) and in test [2] (setting [4]) was 20 to 200 nM each time.

In the case of `COc1ncc(-c2ccn3nc(N)nc3c2)cc1C(=O)NCc1ccc(F)cc1OCC1CCCC1` [Example 130, 5-{2-amino-[1,2,4]triazolo[1,5-a]pyridin-7-yl}-N-{[2-(cyclopentylmethoxy)-4-fluorophenyl]methyl}-2-methoxypyridine-3-carboxamide], the IC50 in test [1] (setting [6]) was less than 20 nM; in test [2] (setting [4]), 20 to 200 nM.

For `Cc1ncc(-c2ccn3nc(N)nc3c2)cc1C(=O)NC(C)c1cc(OC(F)(F)F)ccc1F` (stereo not drawn) [Example 255, 5-{2-amino-[1,2,4]triazolo[1,5-a]pyridin-7-yl}-N-{1-[2-fluoro-5-(trifluoromethoxy)phenyl]ethyl}-2-methylpyridine-3-carboxamide], the IC50 in test [1] (setting [6]) was less than 20 nM; in test [2] (setting [4]) it was 20 to 200 nM.

As for `COc1ncc(C(=O)NCc2cc(F)ccc2OC2CCCC2)cc1-c1ccn2nc(N)nc2c1` [Example 27, 5-{2-Amino-[1,2,4]triazolo[1,5-a]pyridin-7-yl}-N-{[2-(cyclopentyloxy)-5-fluorophenyl]methyl}-6-methoxypyridine-3-carboxamide], the IC50 in test [1] (setting [6]) and in test [2] (setting [7]) was less than 20 nM throughout.
